Results published in PubChem BioAssay AID602267 (Broad Institute, 2012).
The source made the active and inactive calls.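 How the source made its calls: active means signal falls with dose and the fitted half-maximal concentration is at or below twice the top valid tested dose; inconclusive means flat curve with 30 to 70% inhibition, or poor fit; inactive means wrong direction, flat within 30%, or potency beyond limit.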

Molecular target: Golgi-associated PDZ and coiled-coil motif-containing protein (Homo sapiens) (UniProt Q9HD26)
Experiment: blockers of CAL PDZ ligand groove binding – biochemical, fluorescence polarization, untagged CAL PDZ, cherry-pick, dose response (AID 602267)
Details: purified CAL PDZ, TMR-peptide fluorescence polarization, 1 h; for activity change, negative = inhibition: at 50 µM (top of the series)

O=C(CN1C(=O)NC2(CCCC2)C1=O)Nc1ccc(F)c(F)c1F
activity change, negative = inhibition: inactive

Cc1cc(NC(=O)Cc2ccc(Br)cc2)no1
activity change, negative = inhibition: inactive

c1ccc(C(Nc2cccnc2)c2ccccc2)cc1
activity change, negative = inhibition: inactive

O=C(NCCCn1ccnc1)c1ccccc1F
activity change, negative = inhibition: inactive

Cc1ccc(-c2nnn(CC(=O)N(CCN3CCOCC3)C(C(=O)NC(C)(C)C)c3ccc(C)o3)n2)cc1 (configuration not stated)
activity change, negative = inhibition: inactive

Cc1nn(C)c(C)c1S(=O)(=O)N1CCC(CO)(CC2CCCCO2)CC1 (configuration not stated)
activity change, negative = inhibition: inactive

COc1ccc(S(=O)(=O)N2CC(=O)Nc3ccccc32)cc1F
activity change, negative = inhibition: inactive

O=C(/C=C/c1cccs1)Nc1scc(-c2ccccc2)c1C(=O)O
activity change, negative = inhibition: inactive

C[n+]1ccc(C(=O)Nc2ccccc2Cl)cc1
activity change, negative = inhibition: inactive

O=C(c1cccc(Oc2c(Cl)cccc2[N+](=O)[O-])c1)N1CCOCC1
activity change, negative = inhibition: inactive

CN=c1scc(C)n1/N=C/c1cc(Br)c(O)c(Br)c1
activity change, negative = inhibition: inactive

Cc1nn(C)cc1CN(C)C(=O)c1nn2c(c1Br)NC(c1cccs1)CC2C(F)(F)F (configuration not stated)
activity change, negative = inhibition: inactive

CC1CCCC(C)N1/N=C/c1ccc(N(C)C)cc1 (configuration not stated)
activity change, negative = inhibition: inactive

O=C(Nc1ccccc1Cl)Nc1cccnc1Cl
activity change, negative = inhibition: inactive

COc1ccc(S(=O)(=O)Nc2cc(SCC(=O)O)c(O)c3ccccc23)cc1
AC50: 34.2 µM

CC(=O)NC1C(=O)N(CCN2CCOCC2)c2ccc(Cl)cc21 (configuration not stated)
activity change, negative = inhibition: inactive

CCNC(=S)N1CCc2cc(OC)c(OC)cc2C1COc1ccc(OC)cc1 (configuration not stated)
activity change, negative = inhibition: inactive

O=C(NCc1cccs1)c1cccn2c(=O)c3sccc3nc12
activity change, negative = inhibition: inactive

CCCSC1=N/C(=C\c2ccc([N+](=O)[O-])o2)C(=O)S1
activity change, negative = inhibition: inactive

O=C(NCc1ccccn1)Nc1ccc(F)c(Cl)c1
activity change, negative = inhibition: inactive

COc1ccc(C(=O)N2CCCc3ccccc32)cc1Br
activity change, negative = inhibition: inactive

Cc1ccccc1CN(C)C(C)C(=O)Nc1ccccc1F (configuration not stated)
activity change, negative = inhibition: inactive

COc1cc(NS(=O)(=O)c2ccc(NC(=S)Nc3ccccc3)cc2)nc(OC)n1
activity change, negative = inhibition: inactive

COc1cc(C(=O)NC(C)CCc2ccccc2)cc(OC)c1OC (configuration not stated)
activity change, negative = inhibition: inactive

CCOc1ccc(S(=O)(=O)N2CCCCC2)c(C)c1C
activity change, negative = inhibition: inactive

Cc1cccc(C)c1NC(=S)NC(=O)c1ccc(Br)o1
activity change, negative = inhibition: inactive

CC(C)CNC(=O)CC1Nc2ccccc2NC1=O (configuration not stated)
activity change, negative = inhibition: inactive

Brc1cccc(CNCC2CCCO2)c1 (configuration not stated)
activity change, negative = inhibition: inactive

CC1(C2CC2)NC(=O)N(CC(=O)NCC(=O)Nc2ccc(F)c(F)c2F)C1=O (configuration not stated)
activity change, negative = inhibition: inactive

O=C1C=C(c2ccccc2)C(c2ccccc2)C1 (configuration not stated)
activity change, negative = inhibition: inactive

Cc1ccc(F)cc1N=Cc1c(O)c2ccccc2oc1=O
activity change, negative = inhibition: inactive

Cc1cc(C)nc(CCNC(=O)c2cc(COc3c(C)cccc3C)on2)n1
activity change, negative = inhibition: inactive

COc1ccc(C2/C(=C(/O)c3ccc(C)cc3)C(=O)C(=O)N2C)c(OC)c1 (configuration not stated)
activity change, negative = inhibition: inactive

O=C(NCc1ccccn1)c1ccc(NS(=O)(=O)c2ccccc2)cc1
activity change, negative = inhibition: inactive

COc1ccccc1C(=O)Nc1ccc2c(c1)CN(C(=O)CSC)CC2
activity change, negative = inhibition: inactive

Cc1cc(C)c(S(=O)(=O)NCc2ccc3c(c2)OCO3)c(C)c1
activity change, negative = inhibition: inactive

O=C(c1cccs1)N1CCN(C(=O)N2CCOCC2)CC1
activity change, negative = inhibition: inactive

CCOc1ccc(S(=O)(=O)Nc2cc(SCC(=O)O)c(O)c3ccccc23)cc1
AC50: 39 µM

CN(c1nc(-c2ccc(Br)cc2)cs1)C1CCS(=O)(=O)C1 (configuration not stated)
activity change, negative = inhibition: inactive

CCOc1ccc2c(c1)C(NC(C)=O)C(=O)N2CCN1CCOCC1 (configuration not stated)
AC50: > 100 µM (inactive)

CCCCN1CC(O)=C(c2nc(-c3ccc(Cl)cc3)cs2)C1=N
activity change, negative = inhibition: inactive

COc1ccc(CN(C)C(C)C(=O)NC2CCCc3ccccc32)cc1 (configuration not stated)
activity change, negative = inhibition: inactive
